From ChEMBL document CHEMBL3616406, “Soluble epoxide hydrolase inhibitory activity of anthraquinone components from Aloe” (Bioorg Med Chem, 2015) come the findings set out here.

The source made the active and inactive calls. The calls are words filed in the database; no cut-off is given here.

Assay [1] deals with T1, Bifunctional epoxide hydrolase 2 (Homo sapiens, UniProt P34913).
T1 sequence (P34913 whole entry): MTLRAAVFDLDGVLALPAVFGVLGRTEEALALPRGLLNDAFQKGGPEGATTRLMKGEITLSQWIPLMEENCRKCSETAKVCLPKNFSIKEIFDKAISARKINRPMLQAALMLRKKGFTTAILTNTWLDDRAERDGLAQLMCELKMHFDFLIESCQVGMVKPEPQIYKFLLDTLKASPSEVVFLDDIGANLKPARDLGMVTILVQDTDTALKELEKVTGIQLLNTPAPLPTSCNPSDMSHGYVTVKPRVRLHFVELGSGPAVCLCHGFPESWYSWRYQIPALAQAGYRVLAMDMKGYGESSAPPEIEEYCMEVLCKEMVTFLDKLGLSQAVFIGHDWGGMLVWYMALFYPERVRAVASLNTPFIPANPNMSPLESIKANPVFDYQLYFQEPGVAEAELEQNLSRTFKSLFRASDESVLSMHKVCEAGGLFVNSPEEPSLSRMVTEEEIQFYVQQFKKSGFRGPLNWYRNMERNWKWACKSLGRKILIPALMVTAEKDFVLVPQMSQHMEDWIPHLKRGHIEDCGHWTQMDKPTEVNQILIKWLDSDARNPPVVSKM
As to the kind of experiment: Mixed-type inhibition of sEH (unknown origin) using PHOME as substrate assessed as formation of 6-methoxy-2-naphthaldehyde measured during 30 mins by Dixon plot analysis.

Assay [2] deals with T2, Bifunctional epoxide hydrolase 2 (Homo sapiens) (UniProt P34913).
T2 sequence (whole entry): T1 sequence (P34913 whole entry)
Kind of assay: Inhibition of sEH (unknown origin) using PHOME as substrate assessed as formation of 6-methoxy-2-naphthaldehyde at 100 uM measured during 1 hr by fluorescence photometric analysis relative to control.

The target in assay [3] is T1, Bifunctional epoxide hydrolase 2. Kind of assay: Inhibition of sEH (unknown origin) using PHOME as substrate assessed as formation of 6-methoxy-2-naphthaldehyde measured during 1 hr by fluorescence photometric analysis.
Assay [4] deals with T2, Bifunctional epoxide hydrolase 2 (Homo sapiens). As to the kind of experiment: Mixed-type inhibition of sEH (unknown origin) using PHOME as substrate assessed as formation of 6-methoxy-2-naphthaldehyde measured during 30 mins by Lineweaver-Burk plot analysis.
For assay [5] the target is unchanged. As to the kind of experiment: Non-competitive inhibition of sEH (unknown origin) using PHOME as substrate assessed as formation of 6-methoxy-2-naphthaldehyde measured during 30 mins by Lineweaver-Burk plot analysis.
The target of assay [6] is T1, Bifunctional epoxide hydrolase 2. As to the kind of experiment: Non-competitive inhibition of sEH (unknown origin) using PHOME as substrate assessed as formation of 6-methoxy-2-naphthaldehyde measured during 30 mins by Dixon plot analysis.

For `Cc1cc(O)c2c(c1)[C@H]([C@@H]1O[C@H](CO)[C@@H](O)[C@H](O)[C@H]1O)c1cccc(O)c1C2=O`, the Ki in assay [1] stood at 0.2 µM. Also, the inhibition in assay [2] was 90.5%. In addition, the IC50 in assay [3] turned out to be 15.6 µM. In assay [4], the inhibition entry was “Active”.
In the same order, the values of `O=C1c2c(O)cccc2[C@@H]([C@@H]2O[C@H](CO)[C@@H](O)[C@H](O)[C@H]2O)c2cc(CO)cc(O)c21` are 27.8 µM, 62.8%, 41.1 µM and “Active”.
With `C[C@@H]1O[C@@H](OCc2cc(O)c3c(c2)[C@](O)([C@@H]2O[C@H](CO)[C@@H](O)[C@H](O)[C@H]2O)c2cccc(O)c2C3=O)[C@H](O)[C@H](O)[C@H]1O`, the Ki in assay [1] was found to be 10.4 µM. The inhibition in assay [2] came out at 109%. Moreover, the IC50 in assay [3] stood at 12.5 µM. Moreover, the inhibition entry in assay [4] is “Active”.
For `O=C1c2cccc(O)c2C(=O)c2c(O)cc(CO)cc21` [ALOE-EMODIN], the inhibition in assay [2] turned out to be 79.9%. In addition, the inhibition result in assay [5] is “Active”. Besides, in assay [6], the Ki was 52.2 µM. The IC50 in assay [3] came out at 26.8 µM.
With `O=C1c2c(O)cccc2C([C@@H]2O[C@H](CO)[C@@H](O)[C@H](O)[C@H]2O)c2cc(CO)cc(O)c21` (some centres not stated) [ALOIN], the Ki in assay [1] amounted to 57.3 µM. Besides, the inhibition in assay [2] worked out at 73.9%. In assay [3], the IC50 stood at 37.4 µM. The inhibition result in assay [4] was “Active”.
`C[C@@H]1O[C@@H](OCc2cc(O)c3c(c2)[C@H]([C@@H]2O[C@H](CO)[C@@H](O)[C@H](O)[C@H]2O)c2cccc(O)c2C3=O)[C@H](O)[C@H](O)[C@H]1O`: the Ki in assay [1] amounted to 2 µM. Also, in assay [2], the inhibition stood at 86.9%. Besides, the IC50 in assay [3] was 20.2 µM. The inhibition entry in assay [4] is “Active”.
Take `O=C1c2cc(CO)cc(O)c2C(=O)c2c1ccc([C@]1([C@@H]3O[C@H](CO)[C@@H](O)[C@H](O)[C@H]3O)c3cccc(O)c3C(=O)c3c(O)cc(CO)cc31)c2O`: the inhibition in assay [2] is 93.1%. In assay [5], the inhibition result was “Active”. Also, in assay [6], the Ki was 15.5 µM. For the same molecule, the IC50 in assay [3] is 4.1 µM.
The like results for `C[C@@H]1O[C@@H](OCc2cc(O)c3c(c2)[C@H]([C@@H]2OC[C@@H](O)[C@H](O)[C@H]2O)c2cccc(O)c2C3=O)[C@H](O)[C@H](O)[C@H]1O` were, in that order, 87%, “Active”, 0.8 µM and 13.8 µM.

The term Ki denotes a dissociation constant, usually derived from enzyme kinetics or from competition with a known ligand. In general, inhibition refers to the change of the read-out against control, counted positive when it falls. As a reminder, the IC50 is the concentration that gives 50% inhibition.
